Measured values reported in ChEMBL document CHEMBL1201862, “PubChem BioAssay data set” (2004).
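Interpolation was linear, between the two tested concentrations surrounding the appropriate level; five concentrations were tested over 48 hours in 96-well plates. GI50 marks 50% less growth.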 Active and inactive are the calls of the source. No stated cut-off is given here; in the data, active = GI50 up to about 1.1 µM and inactive = higher.

Columns and labels:
Test in all cases: inhibition of tumour cell growth, NCI panel, 48 h
HT-29 = tested on: HT-29
Malme-3M = tested on: Malme-3M
SF-539 = tested on: SF-539
OVCAR-5 = tested on: OVCAR-5
HCT-116 = tested on: HCT-116
CAKI-1 = tested on: CAKI-1
MOLT-4 = tested on: MOLT-4
DU-145 = tested on: DU-145
LOX IMVI = tested on: LOX IMVI
COLO 205 = tested on: COLO 205
SF-295 = tested on: SF-295
SK-MEL-2 = tested on: SK-MEL-2
TK-10 = tested on: TK-10
786-0 = tested on: 786-0
PC-3 = tested on: PC-3
CCRF-CEM = tested on: CCRF-CEM
M14 = tested on: M14
SW-620 = tested on: SW-620
NCI-H23 = tested on: NCI-H23

Row | SMILES | GI50 (HT-29) | GI50 (Malme-3M) | GI50 (SF-539) | GI50 (OVCAR-5) | GI50 (HCT-116) | GI50 (CAKI-1) | GI50 (MOLT-4) | GI50 (DU-145) | GI50 (LOX IMVI) | GI50 (COLO 205) | GI50 (SF-295) | GI50 (SK-MEL-2) | GI50 (TK-10) | GI50 (786-0) | GI50 (PC-3) | GI50 (CCRF-CEM) | GI50 (M14) | GI50 (SW-620) | GI50 (NCI-H23)
1 | CC(C)C(/C=C/c1ccccc1)=N\NC(=S)NN | 98.2 µM (inactive) | > 100 µM (inactive) | > 51.1 µM (inactive) | > 100 µM (inactive) | 31.5 µM (inactive) | 39.4 µM (inactive) | 12.7 µM (inactive) | > 100 µM (inactive) | 16.5 µM (inactive) | 55.1 µM (inactive) | 67.6 µM (inactive) | > 55.6 µM (inactive) | > 100 µM (inactive) | 56.1 µM (inactive) | 53.3 µM (inactive) | 3.93 µM (inactive) | > 100 µM (inactive) | 66.5 µM (inactive) | > 77.3 µM (inactive)
2 | C/C=C/[C@H]1O[C@@](O)([C@@H](C)[C@H](O)[C@H](C)[C@H]2OC(=O)/C(OC)=C/C(C)=C/[C@@H](C)[C@@H](O)[C@@H](CC)[C@@H](O)[C@H](C)C/C(C)=C/C=C/[C@@H]2OC)C[C@H](OC2CC(O)C(OC(N)=O)C(C)O2)[C@@H]1C (stereo partly drawn) | < 0.01 µM (active) | 0.122 µM (active) | 0.0224 µM (active) | 11.9 µM (inactive) | 0.017 µM (active) | 0.0532 µM (active) | < 0.01 µM (active) | 0.914 µM (active) | < 0.01 µM (active) | 0.0334 µM (active) | 0.0248 µM (active) | 0.0195 µM (active) | 17.3 µM (inactive) | 0.0183 µM (active) | < 0.01 µM (active) | < 0.01 µM (active) | < 0.0161 µM (active) | < 0.022 µM (active) | 7.13 µM (inactive)
3 | COc1cc(-c2oc3c(OC)c(O)c(OC)c(O)c3c(=O)c2OC)ccc1O | 68.1 µM (inactive) | 34.7 µM (inactive) | 40.4 µM (inactive) | > 100 µM (inactive) | 50.6 µM (inactive) | 24.8 µM (inactive) | 95.5 µM (inactive) | 32 µM (inactive) | 26.9 µM (inactive) | > 100 µM (inactive) | 44.9 µM (inactive) | 24.8 µM (inactive) | 31.3 µM (inactive) | 38.1 µM (inactive) | 48.9 µM (inactive) | 35.2 µM (inactive) | 10.4 µM (inactive) | 94.4 µM (inactive) | 52.4 µM (inactive)
4 | COC(=O)c1c(CC(Cc2ccc3c(c2)CCCC3)C(=O)O)ccc2c1CCCC2 (stereo not drawn) | 33 µM (inactive) | 31.3 µM (inactive) | 22.5 µM (inactive) | 43.8 µM (inactive) | 17.9 µM (inactive) | 36 µM (inactive) | 37.1 µM (inactive) | 39.6 µM (inactive) | 17.5 µM (inactive) | 18.3 µM (inactive) | 32.6 µM (inactive) | 20.9 µM (inactive) | 36.1 µM (inactive) | 36.1 µM (inactive) | 36.4 µM (inactive) | 45.4 µM (inactive) | 42.9 µM (inactive) | 40.7 µM (inactive) | 60.4 µM (inactive)
5 | CCCCCCCCCCCCCCCCS(=O)(=O)c1ccc(NN)cc1 | > 10 µM (inactive) | > 10 µM (inactive) | 7.43 µM (inactive) | > 10 µM (inactive) | 4.76 µM (inactive) | > 10 µM (inactive) | 6.43 µM (inactive) | > 10 µM (inactive) | 4.29 µM (inactive) | > 10 µM (inactive) | > 10 µM (inactive) | > 10 µM (inactive) | > 10 µM (inactive) | > 10 µM (inactive) | 2.83 µM (inactive) | 1.63 µM (inactive) | > 10 µM (inactive) | > 10 µM (inactive) | 4.88 µM (inactive)
6 | COc1ccc(C2=NOC(N)(c3ccc(OC)cc3)C2)cc1 (stereo not drawn) | > 100 µM (inactive) | 66.5 µM (inactive) | > 100 µM (inactive) | > 100 µM (inactive) | > 100 µM (inactive) | > 100 µM (inactive) | > 100 µM (inactive) | > 100 µM (inactive) | > 100 µM (inactive) | > 100 µM (inactive) | > 100 µM (inactive) | > 100 µM (inactive) | > 100 µM (inactive) | 90.8 µM (inactive) | > 100 µM (inactive) | > 100 µM (inactive) | > 100 µM (inactive) | > 100 µM (inactive) | > 100 µM (inactive)
7 | CCC(=O)Oc1c2ccsc2c(OC(=O)CC)c2ccsc12 | 2.41 µM (inactive) | 0.039 µM (active) | 0.208 µM (active) | 1.88 µM (inactive) | 0.332 µM (active) | 2.42 µM (inactive) | 0.75 µM (active) | 0.262 µM (active) | 0.0661 µM (active) | 5.51 µM (inactive) | 0.254 µM (active) | 0.344 µM (active) | 2.25 µM (inactive) | 2.13 µM (inactive) | 0.339 µM (active) | 0.478 µM (active) | 0.161 µM (active) | 0.471 µM (active) | 0.182 µM (active)
